Assay results as given in patent publication US9718790B2, “Triazine derivative and pharmaceutical composition having an analgesic activity comprising the same” (SHIONOGI & CO., LTD., priority 2010, dated 2017).
pIC50: −log10 of the molar value.

Target: human P2X3 receptor (Homo sapiens (Human), UniProt P56373)
Assay: Evaluation of human P2X3 receptor inhibitory activity (Fluo-3 calcium fluorescence, FDSS 3000, ATP stimulation);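 note: stimulus was 50 nM ATP with fluorescence followed for 3 min, and the response per well was peak post-ATP fluorescence divided by the reading at measurement start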
Format: cell-based
Conditions: C6BU-1 cells stably expressing human P2X3 receptor

Chain of human P2X3 receptor (P56373 whole entry): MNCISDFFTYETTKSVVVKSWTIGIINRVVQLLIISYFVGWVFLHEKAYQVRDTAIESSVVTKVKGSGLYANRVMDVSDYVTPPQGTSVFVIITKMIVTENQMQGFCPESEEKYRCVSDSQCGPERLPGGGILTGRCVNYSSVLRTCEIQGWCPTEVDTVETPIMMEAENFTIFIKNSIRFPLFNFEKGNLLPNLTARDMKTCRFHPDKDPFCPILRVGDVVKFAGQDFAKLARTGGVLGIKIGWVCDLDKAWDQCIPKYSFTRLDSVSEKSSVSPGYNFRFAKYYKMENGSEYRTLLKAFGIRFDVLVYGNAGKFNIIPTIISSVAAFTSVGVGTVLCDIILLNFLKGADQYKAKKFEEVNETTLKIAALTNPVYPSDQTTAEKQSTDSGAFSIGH

SMILES	pIC50
Cc1ccc(Cn2c(=O)n([C@H](C)[C@H](C)C(=O)O)c(=O)[nH]/c2=N\c2ccc(OC(C)C)c(C)c2)cc1 [Compound I-1339]	7.52
Cc1ccc(Cn2c(=O)n(C[C@H](C)C(=O)O)c(=O)[nH]/c2=N\c2ccc(/C=C/C3CC3)cc2)cc1 [Compound I-1200]	7.35
COC(=O)[C@@H](C)Cn1c(=O)[nH]/c(=N\c2ccc(OC)c(C(F)(F)F)c2)n(Cc2ccc(Cl)cc2)c1=O [Compound I-0796]	6.41
CCn1c(=O)[nH]/c(=N\c2ccc(Oc3nc(C)c(C(=O)O)s3)cc2)n(Cc2ccc(Cl)cc2)c1=O [Compound I-2151]	7.92
CCn1c(=O)[nH]/c(=N\c2ccc(Oc3nc(OC)nc(OC)n3)cc2)n(Cc2ccc(Cl)cc2)c1=O [Compound I-2220]	7.43
CCn1c(=O)[nH]/c(=N\c2ccc(Oc3nccc(O)n3)cc2)n(Cc2ccc(Cl)cc2)c1=O [Compound I-2108]	7.59
Cc1cc(/N=c2\[nH]c(=O)n(C[C@H](C)C(=O)O)c(=O)n2Cc2ccc(Cl)cc2)ccc1OCC(F)F [Compound I-0741]	7.30
COC(=O)[C@@H](C)Cn1c(=O)[nH]/c(=N\c2ccc(Oc3cccnc3C)cc2)n(Cc2ccc(C)cc2)c1=O [Compound I-1208]	7.68
CCn1c(=O)[nH]/c(=N\c2ccc(Oc3cncc(CO)c3)cc2)n(Cc2ccc(Cl)cc2)c1=O [Compound I-2075]	7.68
Cc1ccc(Cn2c(=O)n([C@H](C)[C@H](C)C(=O)O)c(=O)[nH]/c2=N\c2ccc(N3CCCCC3)cc2)cc1 [Compound I-1459]	7.47
CCn1c(=O)[nH]/c(=N\c2ccc(Oc3nccc(OC)n3)cc2)n(Cc2ccc(Cl)cc2)c1=O [Compound I-2096]	7.46
Cc1ccc(Cn2c(=O)n(C[C@H](C)C(=O)O)c(=O)[nH]/c2=N\c2ccc(Oc3ccnc(C)c3)cc2)cc1 [Compound I-1269]	8.10
CCOc1ccc(/N=c2\[nH]c(=O)n(CCC(=O)O)c(=O)n2Cc2ccc(C)cc2)c(F)c1F [Compound I-2052]	7.17
CCn1c(=O)[nH]/c(=N\c2ccc(Oc3nc(C(=O)O)cs3)cc2)n(Cc2ccc(Cl)cc2)c1=O [Compound I-2193]	8.22
COC(=O)[C@@H](C)Cn1c(=O)[nH]/c(=N\c2ccc3[nH]c(C)cc3c2)n(Cc2ccc(Cl)cc2)c1=O [Compound I-0692]	7.54
Cc1ccc(Cn2c(=O)[nH]c(=O)[nH]/c2=N\c2ccc(Oc3ccnc(C(=O)O)c3)cc2)cc1 [Compound I-2140]	8.15

SMILES	pIC50
CCOC(=O)/C(Cn1c(=O)[nH]/c(=N\c2ccc(OC(C)C)c(F)c2)n(Cc2ccc(Cl)cc2)c1=O)=N/OC [Compound I-0735, 1-(4-chlorobenzyl)-6-(3-fluoro-4-isopropoxyphenylimino)-3-(2-ethoxycarbonyl-2-methoxyiminoethyl)-1,3,5-triazinane-2,4-dion]	8.15
CCCOc1ccc(/N=c2\[nH]c(=O)n([C@H](C)[C@H](C)C(=O)O)c(=O)n2Cc2ccc(C)cc2)cc1 [Compound I-1340]	7.24
COCCOc1ccc(/N=c2\[nH]c(=O)n(C[C@H](C)C(=O)OC)c(=O)n2Cc2ccc(Cl)cc2)cc1Cl [Compound I-0767]	7.06
Cc1ccc(Cn2c(=O)n(C[C@H](C)C(=O)O)c(=O)[nH]/c2=N\c2ccc(CC(C)C)nc2)cc1 [Compound I-1359]	6.14
COC(=O)C(C)(C)Cn1c(=O)[nH]/c(=N\c2ccc(CC(C)C)c(Cl)c2)n(Cc2ccc(C)cc2)c1=O [Compound I-1447]	8.22
CCOC(=O)CCn1c(=O)[nH]/c(=N\c2ccc(OC3CCC3)c(C)c2)n(Cc2ccc(Cl)cc2)c1=O [Compound I-1401]	7.66
Cc1ccc(Cn2c(=O)n([C@@H](C)[C@@H](C)C(=O)O)c(=O)[nH]/c2=N\c2ccc(OCC(C)C)cc2)cc1 [Compound I-1387]	7.36
COC(=O)[C@@H](C)Cn1c(=O)[nH]/c(=N\c2ccc(CC(C)C)c(OC)c2)n(Cc2ccc(C)cc2)c1=O [Compound I-1249]	7.68
COCc1ccc(/N=c2\[nH]c(=O)n(C[C@H](C)C(=O)O)c(=O)n2Cc2ccc(Cl)cc2)cc1 [Compound I-0686]	6.22
COC(=O)[C@H](C)Cn1c(=O)[nH]/c(=N\c2ccc(OC(C)C)c(C)c2)n(CC2CCCCC2)c1=O [Compound I-0631]	8.00
CCOc1ccc(/N=c2\[nH]c(=O)n(C[C@H](C)C(=O)OC)c(=O)n2Cc2ccc(Cl)cc2)cc1F [Compound I-0602]	7.70
Cc1cc(/N=c2\[nH]c(=O)n(Cc3cccn(CCO)c3=O)c(=O)n2Cc2ccc(Cl)cc2)ccc1OC(C)C [Compound I-0713]	7.80
COC(=O)[C@@H](C)Cn1c(=O)[nH]/c(=N\c2ccc(OC(C)C)c(Cl)c2)n(Cc2ccc(F)cc2)c1=O [Compound I-0626]	7.66
COc1cc(Cn2c(=O)[nH]/c(=N\c3ccc(OC(C)C)c(F)c3)n(Cc3ccc(Cl)cc3)c2=O)ccn1 [Compound I-0642]	8.30
COC(=O)Cn1cccc(Cn2c(=O)[nH]/c(=N\c3ccc(OC(C)C)c(C)c3)n(Cc3ccc(Cl)cc3)c2=O)c1=O [Compound I-0757]	7.46

Same assay, conditions: C6BU-1 cells stably expressing human P2X3 receptor, Fluo-3 fluorescence, FDSS 3000

SMILES	pIC50
COC(=O)[C@@H](C)Cn1c(=O)[nH]/c(=N\c2ccc(C=C(C)C)c(C)c2)n(Cc2ccc(Cl)cc2)c1=O [Compound I-0948]	7.72
COC(=O)[C@@H](C)Cn1c(=O)[nH]/c(=N\c2ccc(Cl)c(C(F)(F)F)c2)n(Cc2ccc(C)cc2)c1=O [Compound I-1000]	6.94
CC1(C)OCC(Cn2c(=O)[nH]/c(=N\c3ccc(OCC4CC4)cc3)n(Cc3ccc(Cl)cc3)c2=O)CO1 [Compound I-1841]	8.22
C=Cc1cc(/N=c2\[nH]c(=O)n(C[C@H](C)C(=O)OC)c(=O)n2Cc2ccc(C)cc2)ccc1OC(C)C [Compound I-0907, (S)-1-(4-methylbenzyl)-6-(3-vinyl-4-isopropoxyphenylimino)-3-(2-methoxycarbonylpropyl)-1,3,5-triazinane-2,4-dion]	8.15
CCOC(=O)CCn1c(=O)[nH]/c(=N\c2ccc(OC(C)C)c(C)c2)n(Cc2ccc(Cl)cc2)c1=O [Compound I-1155]	8.05
CCCOc1ccc(/N=c2\[nH]c(=O)n(CC3(C(=O)OCC)CC3)c(=O)n2Cc2ccc(C)cc2)cc1 [Compound I-0912]	8.00
COC(=O)[C@H](C)[C@H](C)n1c(=O)[nH]/c(=N\c2ccc(OCC3CC3)c(Cl)c2)n(Cc2ccc(C)cc2)c1=O [Compound I-0969]	7.33
CCc1cc(/N=c2\[nH]c(=O)n(C[C@H](C)C(=O)OC)c(=O)n2Cc2ccc(C)cc2)ccc1OC(C)C [Compound I-0908, (S)-1-(4-methylbenzyl)-6-(3-ethyl-4-isopropoxyphenylimino)-3-(2-methoxycarbonylpropyl)-1,3,5-triazinane-2,4-dion]	7.89
CCOc1ccc(/N=c2\[nH]c(=O)n(C[C@H]3COC(C)(C)O3)c(=O)n2Cc2ccc(Cl)cc2)cc1Cl [Compound I-1887]	8.52
CCC(CC)Oc1ccc(/N=c2\[nH]c(=O)n(CCC(=O)O)c(=O)n2Cc2ccc(C)cc2)cc1 [Compound I-1069]	6.95
C[C@@H](C(=O)O)[C@H](C)n1c(=O)[nH]/c(=N\c2ccc3ncsc3c2)n(Cc2ccc(Cl)cc2)c1=O [Compound I-1589]	6.80
C/C=C/c1ccc(Cn2c(=O)n(C[C@H](C)C(=O)OC)c(=O)[nH]/c2=N\c2ccc(OC(C)C)cc2)cc1 [Compound I-1141]	6.04
COC(=O)[C@@H](C)Cn1c(=O)[nH]/c(=N\c2ccc(OC(F)F)cc2)n(Cc2ccc(Cl)cc2)c1=O [Compound I-1166]	6.90
CCCOc1ccc(/N=c2\[nH]c(=O)n(C[C@@H](C)C(=O)OC)c(=O)n2Cc2ccc(Cl)cc2)cc1 [Compound I-1034]	8.30
C=Cc1ccc(Cn2c(=O)n(C[C@H](C)C(=O)OC)c(=O)[nH]/c2=N\c2ccc(OC(C)C)cc2)cc1 [Compound I-1131]	6.98
CCc1nc2ccc(/N=c3\[nH]c(=O)n(CC(=O)O)c(=O)n3Cc3ccc(Cl)cc3)cc2s1 [Compound I-1798]	6.82
CCOC(=O)CN1CC(n2c(=O)[nH]/c(=N\c3ccc(OC(C)C)c(C)c3)n(Cc3ccc(Cl)cc3)c2=O)C1 [Compound I-1741]	7.26

Same assay, conditions: human P2X3 receptor, Test Example 1

SMILES	pIC50
COC(=O)[C@@H](C)Cn1c(=O)[nH]/c(=N\c2ccc(Oc3ccccc3)nc2)n(Cc2ccc(C)cc2)c1=O [Compound I-1515]	6.80
O=C(O)c1cc(Oc2ccc(/N=c3\[nH]c(=O)n(C4CCC4)c(=O)n3Cc3ccc(Cl)cc3)cc2)ccn1 [Compound I-2484]	8.10
O=c1[nH]/c(=N\c2ccc(Oc3ccn[nH]3)cc2)n(Cc2ccc(Cl)cc2)c(=O)n1C[C@H](O)CO [Compound I-2453]	7.19
C=C(C)c1ccc(/N=c2\[nH]c(=O)n(C[C@H](C)C(=O)OC)c(=O)n2Cc2ccc(C)cc2)cc1Cl [Compound I-1491]	6.55
COC(=O)[C@H](C)n1c(=O)[nH]/c(=N\c2ccc(Oc3ccon3)cc2)n(Cc2ccc(Cl)cc2)c1=O [Compound I-2459]	8.15
CCOC(=O)C1(Cn2c(=O)[nH]/c(=N\c3ccc4nc(CC)sc4c3)n(Cc3ccc(Cl)cc3)c2=O)CC1 [Compound I-1539]	8.40
CC1(Cn2c(=O)[nH]/c(=N\c3ccc(Oc4ccon4)cc3)n(Cc3ccc(F)cc3)c2=O)COC(C)(C)OC1 [Compound I-2396]	8.22
CCn1c(=O)[nH]/c(=N\c2ccc(Oc3cc(C(=O)O)ccn3)cc2)n(Cc2ccc(C)cc2)c1=O [Compound I-2303]	8.15
CCn1c(=O)[nH]/c(=N\c2ccc(Oc3ccc(NCC(=O)NC)nc3)cc2)n(Cc2ccc(Cl)cc2)c1=O [Compound I-2626]	8.30
CCn1c(=O)[nH]/c(=N\c2ccc(Oc3ccnc(NCC(=O)NC)c3)cc2)n(Cc2ccc(Cl)cc2)c1=O [Compound I-2555]	7.80
CCOc1ccc(/N=c2\[nH]c(=O)n(CCCC(=O)O)c(=O)n2Cc2ccc(C)cc2)cc1Cl [Compound I-0874]	7.07
O=c1[nH]/c(=N\c2ccc(Oc3ccon3)cc2)n(Cc2ccc(Cl)cc2)c(=O)n1CC(O)CO (stereo not shown) [Compound I-2370]	7.96
Cn1ccc(Oc2ccc(/N=c3\[nH]c(=O)n(CCCO)c(=O)n3Cc3ccc(Cl)cc3)cc2)n1 [Compound I-2413]	7.44
